This is an account of results in patent publication US9663473B2 (Actelion Pharmaceuticals Ltd, priority 2013, dated 2017).

Structures can show the parent of a compound that is named as a salt.

This test has as its target T1, recombinant human ALX receptor (Homo sapiens, UniProt P25090).
T1 construct: expressed in transfected cells; host or cells: HEK293 (HEK293-hALXR-Gα16)
T1 sequence (P25090 1-351): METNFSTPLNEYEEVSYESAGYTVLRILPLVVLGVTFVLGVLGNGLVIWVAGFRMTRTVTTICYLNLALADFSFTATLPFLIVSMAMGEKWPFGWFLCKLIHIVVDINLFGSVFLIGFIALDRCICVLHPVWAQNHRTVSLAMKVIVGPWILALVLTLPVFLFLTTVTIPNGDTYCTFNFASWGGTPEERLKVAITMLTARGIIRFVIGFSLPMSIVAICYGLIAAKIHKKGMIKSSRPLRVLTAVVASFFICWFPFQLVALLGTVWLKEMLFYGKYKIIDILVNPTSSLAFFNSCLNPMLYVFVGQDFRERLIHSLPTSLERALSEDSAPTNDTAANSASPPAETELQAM
Nature of the test: Intracellular calcium measurements (FLIPR), ALX receptor agonistic activity. Format: cell-based. The note with it: HEK293-hALXR-Gα16 cells, Fluo-4 calcium signal, normalized to WKYMVm 10 nM. An outline of the steps:
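HEK293 cells co-expressing human ALX receptor and Gα16 were loaded with 1 μM Fluo-4 AM for 60 min at 37° C., then exposed to serially diluted compounds on FLIPR Tetra. Peak fluorescence above baseline (ex 488/em 540 nm) was normalized to 10 nM WKYMVm as high control.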
For orientation: Calcium assays in cells follow changes in intracellular calcium, usually with a dye or a luminescent sensor.
One may read the EC50 as the concentration giving half of the maximal effect. As for `COc1ccc(C[C@@H](NC(=O)N[C@H](C)c2ccc(OC)cc2)c2nc3ccccc3[nH]2)cc1` [Example 336, 1-((R)-1-(1H-Benzo[d]imidazol-2-yl)-2-(4-methoxyphenyl)ethyl)-3-((R)-1-(4-methoxyphenyl)ethyl)urea], the EC50 is 0.248 µM. On to `COc1ccc(CC(NC(=O)Nc2ccnn2-c2ccc(OC)cc2)c2nc3ccccc3[nH]2)cc1` (stereo not drawn) [Example 406, 1-(1-(1H-benzo[d]imidazol-2-yl)-2-(4-methoxyphenyl)ethyl)-3-(1-(4-methoxyphenyl)-1H-pyrazol-5-yl)urea], for which the half-maximal effective concentration (EC50) was determined as 0.182 µM. For the compound `COc1ccc(C[C@@H](NC(=O)NC23CCC(O)(CC2)CC3)c2nc3ccc(F)cc3[nH]2)cc1` [Example 196, (R)-1-(1-(6-Fluoro-1H-benzo[d]imidazol-2-yl)-2-(4-methoxyphenyl)ethyl)-3-(4-hydroxybicyclo[2.2.2]octan-1-yl)urea], the concentration for a half-maximal effect (EC50) turned out to be 0.0008 µM. For the compound `COc1ccc(C[C@@H](NC(=O)NC2(c3ccc(C)cc3)CC2)c2nc3ccccc3[nH]2)cc1` [Example 277, (R)-1-(1-(1H-Benzo[d]imidazol-2-yl)-2-(4-methoxyphenyl)ethyl)-3-(1-(p-tolyl)cyclopropyl)urea], the half-maximal effective concentration (EC50) came out at 0.082 µM. The value for `COc1ccc(CC(NC(=O)NCc2ccccc2Cl)c2nc3ccccc3[nH]2)cc1` (stereo not drawn) [Example 45, 1-(1-(1H-Benzo[d]imidazol-2-yl)-2-(4-methoxyphenyl)ethyl)-3-(2-chlorobenzyl)urea] was 0.76 µM; that for `COc1ccc(C[C@@H](NC(=O)N2CC3CC2CN3C(=O)OC(C)(C)C)c2nc3ccccc3[nH]2)cc1` (stereo partly drawn) [Example 382, tert-Butyl 5-(((R)-1-(1H-benzo[d]imidazol-2-yl)-2-(4-methoxyphenyl)ethyl)carbamoyl)-2,5-diazabicyclo[2.2.1]heptane-2-carboxylate] was 1.9 µM. Turning to `COc1ccc(CC(NC(=O)NCC(F)(F)F)c2nc3ccccc3[nH]2)cc1` (stereo not drawn) [Example 9, 1-(1-(1H-Benzo[d]imidazol-2-yl)-2-(4-methoxyphenyl)ethyl)-3-(2,2,2-trifluoroethyl)urea], the concentration giving a half-maximal response (EC50) was determined as 0.45 µM. On to `COc1ccc(CC(NC(=O)NCc2ccccc2OC)c2nc3ccccc3[nH]2)cc1` (stereo not drawn) [Example 44], for which the EC50 amounted to 0.466 µM.

Regarding `O=C(N[C@H](Cc1ccc(Br)cc1)c1nc2ccc(C(F)(F)F)cc2[nH]1)N[C@H]1CC[C@H](O)CC1` [Example 222, 1-((R)-2-(4-Bromophenyl)-1-(6-(trifluoromethyl)-1H-benzo[d]imidazol-2-yl)ethyl)-3-(trans-4-hydroxycyclohexyl)urea], the EC50 was found to be 0.0078 µM. The result for `COc1ccc(C[C@@H](NC(=O)NCc2cc(Cl)ccc2Cl)c2nc3ccccc3[nH]2)cc1` [Example 303, (R)-1-(1-(1H-Benzo[d]imidazol-2-yl)-2-(4-methoxyphenyl)ethyl)-3-(2,5-dichlorobenzyl)urea] reads 0.426 µM; that for `COc1ccc(C[C@@H](NC(=O)NCCc2ccccc2)c2nc3ccccc3[nH]2)cc1` [Example 67, (R)-1-(1-(1H-Benzo[d]imidazol-2-yl)-2-(4-methoxyphenyl)ethyl)-3-phenethylurea], 0.415 µM. The value for `COc1ccc(C[C@@H](NC(=O)N[C@H]2CCCC[C@@H]2O)c2nc3ccccc3[nH]2)cc1` (relative stereo) [Example 24, 1-((R)-1-(1H-Benzo[d]imidazol-2-yl)-2-(4-methoxyphenyl)ethyl)-3-((1 S*,2S*)-2-hydroxycyclohexyl)urea] was 0.024 µM; that for `COc1ccc(C[C@@H](NC(=O)N[C@H](C)c2ccc(C)cc2)c2nc3ccccc3[nH]2)cc1` [Example 301, 1-((R)-1-(1H-Benzo[d]imidazol-2-yl)-2-(4-methoxyphenyl)ethyl)-3-((R)-1-(p-tolyl)ethyl)urea] was 0.066 µM.

Take `COc1ccc(C[C@@H](NC(=O)NC2CC=CC2)c2nc3ccccc3[nH]2)cc1` [Example 13, (R)-1-(1-(1H-Benzo[d]imidazol-2-yl)-2-(4-methoxyphenyl)ethyl)-3-(cyclopent-3-en-1-yl)urea hydrochloride]: the EC50 came out at 0.027 µM. `COc1ccc(C[C@@H](NC(=O)NCCC2CCCN2C)c2nc3ccccc3[nH]2)cc1` (stereo partly drawn) [Example 65, 1-((R)-1-(1H-Benzo[d]imidazol-2-yl)-2-(4-methoxyphenyl)ethyl)-3-(2-(1-methylpyrrolidin-2-yl)ethyl)urea dihydrochloride]: the half-maximal effective concentration (EC50) stood at 0.29 µM. As for `COc1ccc(CC(NC(=O)NCc2cccc(Cl)c2)c2nc3ccccc3[nH]2)cc1` (stereo not drawn) [Example 46, 1-(1-(1H-Benzo[d]imidazol-2-yl)-2-(4-methoxyphenyl)ethyl)-3-(3-chlorobenzyl)urea], the 50% effective concentration (EC50) was found to be 0.601 µM. Turning to `COc1ccc(CC(NC(=O)NC2CCCC2)c2nc3ccccc3[nH]2)cc1` (stereo not drawn) [Example 12, 1-(1-(1H-Benzo[d]imidazol-2-yl)-2-(4-methoxyphenyl)ethyl)-3-cyclopentylurea], the EC50 is 0.045 µM. As to `COc1ccc(C[C@@H](NC(=O)NCC2CCN(C)CC2)c2nc3ccccc3[nH]2)cc1` [Example 147, (R)-1-(1-(1H-Benzo[d]imidazol-2-yl)-2-(4-methoxyphenyl)ethyl)-3-((1-methylpiperidin-4-yl)methyl)urea], the half-maximal effective concentration (EC50) amounted to 0.493 µM. With `COc1ccc(CC(NC(=O)NC2CCC(C)(O)CC2)c2nc3ccccc3[nH]2)cc1F` (single isomer, unassigned; ent-1) [Example 308, 1-(1-(1H-Benzo[d]imidazol-2-yl)-2-(3-fluoro-4-methoxyphenyl)ethyl)-3-(trans-4-hydroxy-4-methylcyclohexyl)urea (ent-1)], the EC50 turned out to be 0.0027 µM. The result for `COc1ccc(CC(NC(=O)N[C@H]2CC[C@H](O)CC2)c2nc3cc(F)ccc3[nH]2)c(F)c1F` (single isomer, unassigned; ent-2) [Example 376, 1-(2-(2,3-Difluoro-4-methoxyphenyl)-1-(5-fluoro-1H-benzo[d]imidazol-2-yl)ethyl)-3-(trans-4-hydroxycyclohexyl)urea (ent-2)] reads 0.067 µM; that for `COc1ccc(C[C@@H](NC(=O)N[C@H]2CCCC[C@H]2CO)c2nc3ccccc3[nH]2)cc1` (relative stereo) [Example 34, 1-((R)-1-(1H-Benzo[d]imidazol-2-yl)-2-(4-methoxyphenyl)ethyl)-3-((1 S*,2R*)-2-(hydroxymethyl)cyclohexyl)urea], 0.042 µM. On to `COc1ccc(CC(NC(=O)N[C@H]2CC[C@H](O)CC2)c2nc3ccccc3[nH]2)cc1F` (single isomer, unassigned; ent-1) [Example 309, 1-(1-(1H-Benzo[d]imidazol-2-yl)-2-(3-fluoro-4-methoxyphenyl)ethyl)-3-(trans-4-hydroxycyclohexyl)urea (ent-1)], for which the EC50 stood at 0.0037 µM. Turning to `Cc1ccc2nc([C@@H](Cc3ccc(Br)cc3)NC(=O)N[C@H]3CC[C@H](O)CC3)[nH]c2c1` [Example 221, 1-((R)-2-(4-Bromophenyl)-1-(6-methyl-1H-benzo[d]imidazol-2-yl)ethyl)-3-(trans-4-hydroxycyclohexyl)urea], the EC50 was 0.004 µM. The value for `COc1ccc(C[C@@H](NC(=O)NC(C)c2ccncn2)c2nc3ccccc3[nH]2)cc1` (stereo partly drawn) [Example 386, 1-((R)-1-(1H-Benzo[d]imidazol-2-yl)-2-(4-methoxyphenyl)ethyl)-3-(1-(pyrimidin-4-yl)ethyl)urea] was 1.24 µM.
